Laboratory results as given in US10774068B2, “Composition and methods for inhibiting mammalian sterile 20-like kinase 1” (The Scripps Research Institute, priority 2015, dated 2020).
Like-named read-outs stand apart in the source and are kept apart here.

Key:
human islets [1] = assay: Cytokine (IL-1β and IFN-γ) induced apoptotic activity in human islets; assay type: cell-based; conditions: FIG. 9
Beta cell = Beta cell apoptosis with increasing concentrations of neratinib (FIG. 3); assay type: cell-based
T1D model mice = T1D model mice treated with streptozotocin (STZ); assay type: in vivo
MST1 [2] = biological target: T1, MST1 (Homo sapiens (Human), UniProt Q13043); assay: MST1 kinase activity; assay type: biochemical
T1 sequence (Q13043 whole entry): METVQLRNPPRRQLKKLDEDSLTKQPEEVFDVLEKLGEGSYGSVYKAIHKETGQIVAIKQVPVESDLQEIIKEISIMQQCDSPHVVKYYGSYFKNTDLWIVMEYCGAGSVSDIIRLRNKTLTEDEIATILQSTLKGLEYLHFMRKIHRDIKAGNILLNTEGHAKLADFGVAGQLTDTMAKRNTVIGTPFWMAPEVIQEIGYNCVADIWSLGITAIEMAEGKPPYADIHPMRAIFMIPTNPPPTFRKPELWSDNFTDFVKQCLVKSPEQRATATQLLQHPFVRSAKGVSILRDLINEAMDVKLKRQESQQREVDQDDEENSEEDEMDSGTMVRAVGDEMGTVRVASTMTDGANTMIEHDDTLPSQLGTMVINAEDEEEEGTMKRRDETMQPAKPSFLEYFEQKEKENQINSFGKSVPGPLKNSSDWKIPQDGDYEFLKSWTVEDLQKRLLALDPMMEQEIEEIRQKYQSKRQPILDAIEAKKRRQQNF

human islets [3] = assay: High glucose/palmitate induced apoptotic activity in human islets; parameters: MST1 phosphorylation (pMST1): dose or concentration left out as unconfirmed; conditions: HG/Pal, FIG. 8
Source text: Freshly isolated human islets from a single donor were exposed to high glucose and palmitate (HG/Pal) to induce apoptosis.

MST1 [4] = biological target: T1, MST1; assay: MST1 biochemical LanthaScreen Eu Kinase Binding Assay
Experimental: (§1) MST1 and MST2 biochemical LanthaScreen Eu Kinase Binding Assay was based on the binding and displacement of kinase tracer to the kinase of interest. Compounds in 1000×DMSO stock solution was dispensed using automated dispensing system (Labcyte) to 384 well Corning Microplate at 15 nL, 5 uL of Kinase buffer A was added to each well. Plates were shaken and incubated for 1 min to ensure well dissolution of compounds.

MST2 = MST2 (Homo sapiens (Human), UniProt Q13188); assay: MST2 biochemical LanthaScreen Eu Kinase Binding Assay
MST2, sequence (Q13188 whole entry): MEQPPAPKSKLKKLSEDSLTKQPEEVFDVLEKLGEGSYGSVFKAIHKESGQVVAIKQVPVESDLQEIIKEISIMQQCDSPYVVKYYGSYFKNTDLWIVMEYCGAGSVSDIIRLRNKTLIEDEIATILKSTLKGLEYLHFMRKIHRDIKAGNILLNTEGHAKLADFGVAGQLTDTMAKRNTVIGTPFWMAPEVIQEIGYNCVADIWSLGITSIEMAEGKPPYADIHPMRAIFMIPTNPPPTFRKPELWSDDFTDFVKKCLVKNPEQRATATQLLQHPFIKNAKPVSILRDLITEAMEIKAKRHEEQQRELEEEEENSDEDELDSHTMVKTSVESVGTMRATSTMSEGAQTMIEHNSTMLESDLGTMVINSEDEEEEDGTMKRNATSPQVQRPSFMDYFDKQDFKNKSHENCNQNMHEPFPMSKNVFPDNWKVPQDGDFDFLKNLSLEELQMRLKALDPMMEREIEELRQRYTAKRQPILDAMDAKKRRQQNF
Experimental: as §1

[5] = read-out: Kinase Binding assay-MST1 IC50
[6] = read-out: Kinase Binding assay-MST2 IC50

| SMILES | IC50 (MST1 [4]; [5]) [nM] | IC50 (MST2; [6]) [nM] | IC50 (MST2) [nM] | also measured |
| --- | --- | --- | --- | --- |
| CCOc1cc2ncc(C#N)c(Nc3ccc(OCc4ccccn4)c(Cl)c3)c2cc1NC(=O)/C=C/CN(C)C [neratinib] | – | – | – | Caspase 3 cleavage (human islets [1]; 10 μM neratinib): inhibited; MST1 phosphorylation (human islets [1]; 10 μM neratinib): inhibited; Caspase 3 cleavage (human islets [1]; 25 μM neratinib): inhibited; MST1 phosphorylation (human islets [1]; 25 μM neratinib): inhibited; Beta cell apoptosis (Beta cell): decrease; hyperglycemia (T1D model mice; T1D model mice treated with STZ, FIG. 4): attenuated; responses to acute glucose challenge (T1D model mice; T1D model mice, FIG. 5): improved; blood glucose (T1D model mice; T1D model mice, FIG. 6): reduced; serum insulin (T1D model mice; T1D model mice, FIG. 7): increased; MST1 kinase activity (MST1 [2]): inhibitor; induction of cleaved caspase 3 (Cl Casp3) (human islets [3]; 25 M neratinib (so in the source)): inhibited; MST1 phosphorylation (pMST1) (human islets [3]): inhibited |
| CCOc1cc2ncc(C#N)c(Nc3ccc(OCc4ncccc4CO)cc3Cl)c2cc1NC(=O)CCCN(C)C [Example 83] | < 100 | < 100 | – | – |
| CCOc1cc2ncc(C#N)c(Nc3ccc(OCc4cccc(OC)n4)c(Cl)c3)c2cc1NC(=O)CCCN(C)C [Example 6] | – | – | 100 to 1000 | IC50 (MST1 [4]): 100 to 1000 nM |
| CCOc1cc2ncc(C#N)c(Nc3ccc(OCc4ncccc4C)cc3C#N)c2cc1NC(=O)CCCN(C)C [Example 30] | < 100 | – | 100 to 1000 | – |
| CCOc1cc2ncc(C#N)c(Nc3ccc(OCc4ncccc4C)c(C#N)c3)c2cc1NC(=O)CCCN(C)C [Example 27] | – | – | 1000 to 10000 | IC50 (MST1 [4]): 100 to 1000 nM |
| CCOc1cc2ncc(C#N)c(Nc3cccc(Cl)c3)c2cc1NC(C)=O [Example 127] | < 100 | < 100 | – | – |
| CCOc1cc2ncc(C#N)c(Nc3ccc(OCc4ccccn4)c(Cl)c3)c2cc1NC(=O)CCCN1CCCC1 [Example 95, N-(4-(3-chloro-4-(pyridin-2-ylmethoxy)phenylamino)-3-cyano-7-ethoxyquinolin-6-yl)-4-(pyrrolidin-1-yl)butanamide] | < 100 | – | 100 to 1000 | – |
| CCOc1cc2ncc(C#N)c(Nc3ccc(OCc4ccc(C)cn4)c(Cl)c3)c2cc1NC(=O)CCCN(C)C [Example 11] | 100 to 1000 | < 100 | – | – |
| CCOc1cc2ncc(C#N)c(Nc3ccc(OCc4ncccc4C)cc3Br)c2cc1NC(=O)CCCN(C)C [Example 74] | < 100 | < 100 | – | – |
| Cc1cccnc1COc1ccc(Nc2c(C#N)cnc3ccc(NC(=O)CCCN(C)C)cc23)c(Cl)c1 [Example 144, N-(4-(2-chloro-4-((3-methylpyridin-2-yl)methoxy)phenylamino)-3-cyanoquinolin-6-yl)-4-(dimethylamino)butanamide] | – | – | 100 to 1000 | IC50 (MST1 [4]): 100 to 1000 nM |
| CCOc1cc2ncc(C#N)c(Nc3ccc(OCc4ncccc4C4CC4)c(Cl)c3)c2cc1NC(=O)CCCN(C)C [Example 44] | 100 to 1000 | – | 100 to 1000 | – |
| CCOc1cc2ncc(C#N)c(Nc3ccc(OCc4cc(C5CC5)on4)c(Cl)c3)c2cc1NC(=O)CCCN(C)C [Example 40] | 100 to 1000 | – | 100 to 1000 | – |
| CCOc1cc2ncc(C#N)c(Nc3ccc(OCc4nccn4CC)c(Cl)c3)c2cc1NC(=O)CCCN(C)C [Example 38] | 100 to 1000 | – | 100 to 1000 | – |
| CCOc1cc2ncc(C#N)c(Nc3ccc(OCc4ncccc4C)cc3C(F)(F)F)c2cc1NC(=O)CCCN(C)C [Example 29] | – | – | 100 to 1000 | IC50 (MST1 [4]): 100 to 1000 nM |
| CCOc1cc2ncc(C#N)c(Nc3ccc(CCc4ccccn4)c(Cl)c3)c2cc1NC(=O)CCCN(C)C [Example 107, N-(4-(3-chloro-4-(2-(pyridin-2-yl)ethyl)phenylamino)-3-cyano-7-ethoxyquinolin-6-yl)-4-(dimethylamino)butanamide] | 100 to 1000 | 100 to 1000 | – | – |
| CCOc1cc2ncc(C#N)c(Nc3cc(Cl)c(OCc4ncccc4C)cc3Br)c2cc1NC(=O)CCCN(C)C [Example 79] | < 100 | < 100 | – | – |
| CCOc1cc2ncc(C#N)c(Nc3ccc(OCc4ncccc4C)c(C)c3)c2cc1NC(=O)CCCN(C)C [Example 21] | < 100 | – | 100 to 1000 | – |
| CCOc1cc2ncc(C#N)c(Nc3ccc(OCc4ncccc4C)c(Cl)c3)c2cc1NC(=O)/C=C/CN(C)C [Example 90, (E)-N-(4-(3-chloro-4-((3-methylpyridin-2-yl)methoxy)phenylamino)-3-cyano-7-ethoxyquinolin-6-yl)-4-(dimethylamino)but-2-enamide] | < 100 | < 100 | – | – |
| CCOc1cc2ncc(C#N)c(Nc3ccc(OCc4ncccc4C)cc3Cl)c2cc1NC(=O)CCCN(C)C [Example 25, N-(4-((2-chloro-4-((3-methyl-pyridin-2-yl)methoxy)phenyl)amino)-3-cyano-7-ethoxyquinolin-6-yl)-4-(dimethylamino)butanamide] | < 100 | < 100 | – | – |
